From publication PMC11050823, “The Cyclic Imine Core Common to the Marine Macrocyclic Toxins Is Sufficient to Dictate Nicotinic Acetylcholine Receptor Antagonism” (Marine Drugs, 2024) come the findings set out here.

Marks after values point to notes of the source that are not given here.

Experiment [1] concerns the target Torpedo muscle-type α1_2βγδ nAChR (Torpedo marmorata, UniProt P02711+Q6S3H8+Q6S3H9). In words: Manual TEVC recording of ACh-evoked currents in Xenopus oocytes micro-transplanted with Torpedo electrocyte membranes. The experiment is classed as cell-based. To be noted: for Hill Slope: concentration-inhibition curve, ACh 25 µM. From the text:
(§1) Functional analysis of the (±)-4 racemate and (+)-4 R and (−)-4 S enantiomers used either manual or automated two-electrode voltage-clamp (TEVC) recordings on Xenopus laevis oocytes at −60 mV holding membrane potential. The oocytes were either micro-transplanted with Torpedo α1_2βγδ-enriched electrocyte membranes or transfected with human α7 or α4β2-encoding cDNAs. When applied alone (see Experimental Procedures), none of the three spiroimines induced nAChR channel opening, thereby discarding any agonistic activity toward these nAChR subtypes. Instead, when applied together with ACh at its EC50 concentration for each nAChR subtype, all three spiroimines clearly behaved as nicotinic antagonists, whose potency depended on the receptor subtype examined (Figure 2; Table 1).
(§2) The sources for live animals and biological materials, the procedures for nAChR microtransplantation and expression in oocytes, and the procedures for manual (α1_2βγδ nAChR) and automated (α7 and α4β2 nAChRs) TEVC recording are detailed in Appendix C. […] Then, the oocyte was perfused for 45 s with the tested spiroimine at a given concentration, immediately followed by the co-application of ACh and the spiroimine at the same concentrations and times as indicated above. The oocyte was washed with Ringer’s solution, and then recovery of the ACh-evoked current was recorded.
(§3) The concentration–inhibition curves were analyzed as previously detailed using the equation I = Imax [L]^nH/(EC50^nH + [L]^nH) (Equation (1)), where I is the measured agonist-evoked current, [L] is the agonist concentration, EC50 is the agonist concentration that evoked half the maximal current (I^max), and nH is the Hill coefficient. For antagonist inhibition, current (I) values were normalized to the I^max value recorded from the same oocyte to yield the fractional (%) response data. IC50 values were established from the concentration–response curves by fitting to the equation F = 1/[1 + ([X]/IC50)^nH] (Equation (2)), where F is the fractional response obtained in the presence of the inhibitor at concentration [X], and IC50 is the inhibitor concentration reducing the ACh-evoked amplitude by half. Data analysis was performed without constraints as Log[spiroimine] versus response (three parameters), with a Hill slope ~1. Statistical significance of differences between the control and test values was assessed using either the two-tailed Student’s “t” test or the Kolmogorov–Smirnov two-sample test and p < 0.05.
(§4) Torpedo membranes containing α1_2βγδ nAChR were microtransplanted into the oocyte cytoplasm by microinjecting a membrane suspension (50 nL at 2.5 µg/µL, i.e., 125 ng total protein, in 5 mM glycine) with an electronic micro-injector (Nanoliter2000 Micro4 Controller, World Precision Instruments Inc., Hertfordshire, UK) mounted on a microscope. Human α7 and α4β2 nAChRs were expressed through microinjection, into the oocyte nucleus, of α7 mRNA and of a 1:1 (w/w) mixture of α4 and β2 cDNAs (a ratio favoring expression of the α4_3β2_2 population over the α4_2β2_3 population) (50 nL at 1 µg/µL) in a pRc/CMV expression vector (Invitrogen). Oocytes were maintained at 18 °C and TEVC recordings were performed 1–4 days later in a room with controlled temperature (20 °C).
(§5) Manual TEVC on α1_2βγδ nAChR oocytes was carried out using an OC-725B amplifier (Warner Instrument Corp., Hamden, CT, USA). Voltage and current borosilicate glass microelectrodes were filled with KCl 3 M and had 0.5–1.5 MΩ tip resistances. For data acquisition and recording, a pCLAMP-9/Digidata-1322A system (Molecular Devices, San Jose, CA, USA) was used. The oocyte recording chamber of 300 μL was superfused at a high rate (8–12 mL.min^−1) with a modified oocyte Ringer’s solution made of HEPES 5 mM pH 7.4, NaCl 100 mM, KCl 2.8 mM, and BaCl2 0.3 mM, where BaCl2 substitution to the original CaCl2 prevents secondary activation of a Ca^2+-dependent Cl^− current. […]

Experiment [2] concerns Torpedo muscle-type α1_2βγδ nAChR. The experiment is described as above. The format is cell-based, Torpedo marmorata. The settings on record: from IC50 values.
Description: as §1, §2, §3, §4, §5

Torpedo muscle-type α1_2βγδ nAChR (Torpedo marmorata, UniProt P02711+Q6S3H8+Q6S3H9), sequence (P02711 25-461): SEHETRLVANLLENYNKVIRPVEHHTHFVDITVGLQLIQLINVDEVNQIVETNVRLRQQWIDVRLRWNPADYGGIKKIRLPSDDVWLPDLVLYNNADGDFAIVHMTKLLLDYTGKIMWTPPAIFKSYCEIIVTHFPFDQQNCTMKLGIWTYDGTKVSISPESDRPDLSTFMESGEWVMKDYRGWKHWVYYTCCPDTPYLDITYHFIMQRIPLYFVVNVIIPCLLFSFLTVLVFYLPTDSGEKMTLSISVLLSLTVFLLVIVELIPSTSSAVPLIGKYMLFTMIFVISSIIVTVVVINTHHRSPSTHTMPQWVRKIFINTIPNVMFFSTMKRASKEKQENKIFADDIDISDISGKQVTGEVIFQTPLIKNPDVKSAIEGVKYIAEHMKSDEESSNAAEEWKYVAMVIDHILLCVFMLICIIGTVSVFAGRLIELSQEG
Torpedo muscle-type α1_2βγδ nAChR (Torpedo marmorata, UniProt P02711+Q6S3H8+Q6S3H9), sequence (Q6S3H9 18-505): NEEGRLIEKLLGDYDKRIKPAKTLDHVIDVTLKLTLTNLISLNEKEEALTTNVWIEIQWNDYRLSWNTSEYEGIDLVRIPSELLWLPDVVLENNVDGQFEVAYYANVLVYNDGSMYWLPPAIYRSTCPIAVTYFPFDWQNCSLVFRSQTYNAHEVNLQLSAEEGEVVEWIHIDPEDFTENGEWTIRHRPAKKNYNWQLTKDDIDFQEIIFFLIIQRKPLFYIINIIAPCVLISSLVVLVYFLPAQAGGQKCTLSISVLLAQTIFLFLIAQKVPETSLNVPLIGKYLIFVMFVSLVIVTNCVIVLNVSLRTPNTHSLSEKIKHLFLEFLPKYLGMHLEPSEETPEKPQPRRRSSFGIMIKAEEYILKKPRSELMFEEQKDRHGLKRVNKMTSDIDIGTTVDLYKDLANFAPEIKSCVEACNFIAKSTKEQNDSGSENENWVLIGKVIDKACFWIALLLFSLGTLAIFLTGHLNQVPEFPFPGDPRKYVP
Torpedo muscle-type α1_2βγδ nAChR (Torpedo marmorata, UniProt P02711+Q6S3H8+Q6S3H9), sequence (Q6S3H8 22-522): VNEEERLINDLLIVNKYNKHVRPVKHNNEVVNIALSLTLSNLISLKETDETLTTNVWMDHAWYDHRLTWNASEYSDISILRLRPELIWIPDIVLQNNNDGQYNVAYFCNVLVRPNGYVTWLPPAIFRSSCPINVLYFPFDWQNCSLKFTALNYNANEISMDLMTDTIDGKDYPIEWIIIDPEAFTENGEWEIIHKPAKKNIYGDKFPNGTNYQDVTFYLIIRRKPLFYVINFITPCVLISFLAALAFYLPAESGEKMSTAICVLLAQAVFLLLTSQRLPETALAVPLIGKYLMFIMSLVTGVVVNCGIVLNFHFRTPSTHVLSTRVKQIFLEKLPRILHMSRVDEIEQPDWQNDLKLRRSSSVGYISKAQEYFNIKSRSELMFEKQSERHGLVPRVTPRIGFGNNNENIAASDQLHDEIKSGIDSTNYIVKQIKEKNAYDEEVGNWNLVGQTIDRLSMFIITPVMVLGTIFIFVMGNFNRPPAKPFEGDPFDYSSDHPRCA
Torpedo muscle-type α1_2βγδ nAChR (Torpedo marmorata, UniProt P02711+Q6S3H8+Q6S3H9), sequence (Q6S3I0 25-493 partner): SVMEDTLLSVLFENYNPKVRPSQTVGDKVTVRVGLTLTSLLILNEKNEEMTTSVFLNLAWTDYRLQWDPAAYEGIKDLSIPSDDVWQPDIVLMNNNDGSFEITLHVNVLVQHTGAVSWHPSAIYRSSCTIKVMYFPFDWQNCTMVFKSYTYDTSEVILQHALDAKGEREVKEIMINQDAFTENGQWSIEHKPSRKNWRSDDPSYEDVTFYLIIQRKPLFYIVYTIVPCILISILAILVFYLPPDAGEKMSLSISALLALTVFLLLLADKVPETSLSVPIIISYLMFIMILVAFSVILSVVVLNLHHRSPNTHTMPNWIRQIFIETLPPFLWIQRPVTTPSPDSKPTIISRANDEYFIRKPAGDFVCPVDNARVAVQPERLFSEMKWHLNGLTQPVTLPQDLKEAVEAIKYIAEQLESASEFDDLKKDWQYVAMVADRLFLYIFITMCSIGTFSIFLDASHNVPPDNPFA

Take `CC1=NCCCC12CCCCC21OCCO1` (racemic) [Racemic (±)-4, 7-methyl-1,4-dioxa-8-azadispiro[4.0.5.4]pentadec-7-ene]: the “recovery of the ACh-evoked current after washout of bound spiroimine” value in experiment [1] (10 µM spiroimine, washout with ACh, desensitized state) was “full recovery of the nicotinic current”. For the same molecule, the “Hill Slope” value in experiment [1] is listed as ~1 ^b.
Regarding `CC1=NCCC[C@@]12CCCCC21OCCO1` [Spiroimine (−)-4 S, 7-methyl-1,4-dioxa-8-azadispiro[4.0.5.4]pentadec-7-ene], in experiment [1], the “Hill Slope” value is reported as ~1 ^b.
Turning to `CC1=NCCC[C@]12CCCCC21OCCO1` [Spiroimine (+)-4 R, 7-methyl-1,4-dioxa-8-azadispiro[4.0.5.4]pentadec-7-ene], in experiment [2], the “selectivity for the α1_2βγδ nAChR compared with the α4β2 subtype” value is recorded as 25 fold and the “selectivity for the α1_2βγδ nAChR compared with the α7 subtype” value is 13 fold. Besides, the “Hill Slope” value in experiment [1] is ~1 ^b.
